Assay results taken from patent US5679638A, “Method for treating a tumor with a chemotherapeutic agent” (Biopure Corporation, priority 1993, dated 1997).
Values joined by “and” are separate entries in the source; they are usually repeats but may differ in a detail not shown here. Identical values can stand only once.

Experiments:
FSaIIC fibrosarcoma = FSaIIC fibrosarcoma tumor growth delay; format: in vivo, mouse (male C3H/FeJ mice); details: for Increase in tumor growth delay by addition of UPHS: UPHS + drug (air) vs drug alone; for Effect of carbogen breathing on tumor growth delay produced by drug / Tumor growth delay, Carbogen: no UPHS; for Effect of carbogen breathing on tumor growth delay produced by drug: vs drug with air; for Tumor growth delay, Carbogen: drug + carbogen breathing 6 hours; for Tumor growth delay, UPHS/Air: UPHS 0.3 ml (12 ml/kg) i.v. immediately before drug; for Tumor growth delay, UPHS/Air / Tumor growth delay, alkylating agent (alone): air breathing; for Tumor growth delay, alkylating agent (alone): drug alone i.p.
Protocol: The FsaII fibrosarcoma (FSaIIC), adapted for growth in culture, was employed. See Rice, L. et al., "The Radiosensitivity of a Murine Fibrosarcoma as Measured by Three Cell Survival Assays", Br. J. Cancer 41:240-245 (1980). 2×10^6 FSaIIC cells, prepared from a brei of several stock tumors, were implanted intramuscularly into the legs of 8- to 10-week old male C3H/FeJ mice (The Jackson Laboratory, Bar Harbor, Me.). When the tumors were approximately 100 mm^3 in volume, 0.3 ml (12 ml/kg; 1.32 gm protein/kg) of UPHS was injected via the tail vein. The UPHS solution was obtained from Biopure Corporation, Boston, Mass. and was a polymerized form of a highly purified bovine hemoglobin solution. It contained 11±2 gm/deciliter of bovine hemoglobin. […] It contained sodium (145 mM/L), chloride (140 mM/L) and potassium (4.0 mM/L) in a buffer solution (pH 7.8±0.4). […] DeVenuto, F., "Evaluation of Human and Bovine Modified-Hemoglobin Solution as Oxygen-Carrying Fluid for Blood Volume Replacement", Biomat. Art. Cells, Art. Org. 16:77-82 (1988); and Winslow, R. M., "Optimal Hematologic Variables for Oxygen Transport Including p50, Hemoglobin Cooperativity, Hematocrit, Acid-Base Atatus, and Cardiac Function", Biomat., Art. Cells and Art. Organs 16:149-172 (1988).
CTX and PAM were purchased as pure powders from Sigma Chemical Company, St. Louis, Miss. […] BCNU (Carmustine) was purchased from the Dana-Farber Cancer Institute Pharmacy.
The mice were allowed to breathe air or were placed in a circulating atmosphere of 95% O2 /5% CO2 (carbogen) for six hours and then removed to air. The progress of each tumor was measured three times weekly until it reached a volume of 500 mm^3. Tumor growth delay was calculated as the days taken by each individual tumor to reach 500 mm^3 compared to the untreated controls. […] Days of tumor growth Relay are the mean ±SE for the treatment group compared to the control.
Statistical comparisons were made with Dunn Multiple Comparisons Test.
The procedures and materials of Example I were employed except that Fluosol-DA was substituted for UPHS. Fluosol-DA was obtained from Alpha Therapeutics Corporation and is an emulsion consisting of […] (w/v) of the following perfluorocarbons: 7 parts perfluorodecalin, 3 parts per perfluorotripropyliamine; Pluronic F-68 (2.7%, w/v); yolk phospholipids (0.4% w/v) as emulsifiers; and glycerol (0.8%, w/v) as a cryoprotective agent. The annex solution (electrolyte/bicarbonate solution) furnished the preparation with physiological osmolarity.
The specific procedures employing Fluosol-DA have been described previously. See Teicher, B. A. et al., "Approaches to Defining the Mechanism of Fluosol-DA 20%/Carbogen Enhancement of Melphalan Antitumor Activity", Cancer Res. 47:513-518 (1987); Teicher, B. A. et al., "Differential Enhancement of Melphalan Cytotoxicity in Tumor and Normal t+Tissue by Fluosol-DA and Oxygen Breathing", Int. J. Cancer 36:585-589 (1985); and Teicher, B. A. et al., "Effects of Various Oxygenation Conditions on the Enhancement by Fluosol-DA of Melphalan Antitumor Activity", Cancer Res. 47:5036-5041 (1987).

[1] = tested on: subcutaneous 9L gliosarcoma; assay: Subcutaneous 9L gliosarcoma tumor growth delay; format: in vivo, rat (male Fischer 344); details: for Subcutaneous 9L Tumor Growth Delay, Mean Days: Table III, days to 500 mm^3 vs control (19.5 ± 0.5 days), CDDP 8 mg/kg day 7, BCNU 3 x 15, CTX or IFOS 3 x 100 mg/kg, UPHS 8 ml/kg; for Effectiveness against subcutaneous 9L tumors: relative statement among BCNU, CTX, CDDP, IFOS; for Increase in tumor growth delay by prior administration of UPHS: UPHS + drug vs drug alone
Protocol: The 9L gliosarcoma (9L) cells were obtained as a gift of 9L/SF gliosarcoma cells from Dr. Dennis Dean, University of California, San Francisco. These cells were maintained in culture in .varies.-MEM (Grand Island Biological Co., Grand Island, N.Y.) and supplemented with 10% fetal bovine serum (Sterile Systems, Inc., Logan, Utah) and with antibiotics. The 9L cells (4×10^4) in 10 μL of media without serum were implanted intracranially in male Fischer 344 rats (Taconic Farms, Germantown, N.Y.) weighing 200-250 gm on day 0. Each rat was anesthetized with sodium pentobarbital. A midline scalp incision was made and a hole was bored through the skull with 23 gauge needle at a point 2 mm lateral to the midline. The cell suspension was injected into the right frontal lobe at a depth of 3 mm from the dural surface. The needle was removed and the hole filled with dental cement. The scalp was sealed with a surgical clip. Two days later 9L cells (2×10^6) were implanted subcutaneously into the flank of each animal. When the tumors were approximately 100 mm^3 in volume, 7 days after tumor cell implantation, 8 ml/kg of UPHS was injected via the tail vein. After injecting the UPHS, administration of chemotherapeutic agents was initiated. […] BCNU therapy consisted of three 15 mg/kg BCNU doses administered by intraperitoneal injection days 7, 9 and 11. CTX and ifosfamide (IFOS) therapy consisted of three 100 mg/kg CTX or IFOS doses administered by intraperitoneal injection on days 7, 9 and 11. For the BCNU, CTX and IFOS therapies, UPHS was intravenously administered prior to each chemotherapeutic agent injection on days 7, 9 and 11. The IFOS was purchased from the Dana-Farber Cancer Institute. Survival of animals was monitored daily. Animals that were moribund or unable to reach food or water were killed by CO2 inhalation.
The progress of each subcutaneous tumor was measured 3 times/week until it reached a volume of 500 mm^3. Tumor growth delay was calculated as the number of days for each individual tumor to reach 500 mm^3 compared with untreated controls. Each treatment group had 4 animals and the experiment was repeated twice. Days of tumor growth delay are the mean ±SE for the treatment group compared with the control.

[2] = UPHS + carbogen 6 h + drug vs drug alone
[3] = PAM 10, CTX 150, CDDP 10, BCNU 15 mg/kg

N[C@@H](Cc1ccc(N(CCCl)CCCl)cc1)C(=O)O [PAM, Melphalan]
Tumor growth delay, with Fluosol-DA and air breathing (FSaIIC fibrosarcoma; PAM 10 mg/kg + Fluosol-DA, air): about 6.5 days
Increase in tumor growth delay by combination of UPHS and carbogen (FSaIIC fibrosarcoma; [2]): 3.6 fold
Increase in tumor growth delay by addition of UPHS (FSaIIC fibrosarcoma): 2.2 fold
Effect of carbogen breathing on tumor growth delay produced by drug (FSaIIC fibrosarcoma; carbogen 6 hours): small increase in tumor growth delay
Tumor growth delay, Carbogen (FSaIIC fibrosarcoma; [3]): 4.0 ± 0.6 days

N.N.[Cl][Pt][Cl] [CDDP, cis-diaminodichloroplatinum(II)]
Subcutaneous 9L Tumor Growth Delay, Mean Days [1]: 9.4 ± 0.8 days
Effect of UPHS on tumor growth delay produced by drug ([1]; UPHS prior to single dose of CDDP): no substantial effect on the tumor growth delay
Effectiveness against subcutaneous 9L tumors [1]: very effective against both subcutaneous and intracranial 9L tumors
Tumor growth delay, UPHS/Air (FSaIIC fibrosarcoma; [3]): 9.6 ± 1.1 days
Tumor growth delay, UPHS/Carbogen (FSaIIC fibrosarcoma; UPHS 12 ml/kg i.v. + drug + carbogen breathing 6 hours, PAM 10, CTX 150, CDDP 10, BCNU 15 mg/kg): 14.1 ± 1.6 days and 14.1 days
Increase in tumor growth delay by combination of UPHS and carbogen (FSaIIC fibrosarcoma; [2]): 1.9 fold
Increase in tumor growth delay by addition of UPHS (FSaIIC fibrosarcoma): 1.3 fold
Effect of carbogen breathing on tumor growth delay produced by drug (FSaIIC fibrosarcoma; carbogen 6 hours): no significant effect on the tumor growth delay
Tumor growth delay, Carbogen (FSaIIC fibrosarcoma; [3]): 7.6 ± 0.3 days
Tumor growth delay, alkylating agent (alone) (FSaIIC fibrosarcoma; [3]): 7.4 ± 0.8 days and 7.4 days

O=NN(CCCl)C(=O)NCCCl [BCNU, N,N-bis(2-chloroethyl)-N-nitrosourea]
Subcutaneous 9L Tumor Growth Delay, Mean Days [1]: 5.8 ± 0.5 days
Increase in tumor growth delay by prior administration of UPHS [1]: 1.3 fold
Effectiveness against subcutaneous 9L tumors [1]: least effective against subcutaneously growing 9L tumors
Tumor growth delay, UPHS/Air (FSaIIC fibrosarcoma; [3]): 3.8 ± 0.5 days
Increase in tumor growth delay by addition of UPHS (FSaIIC fibrosarcoma): 1.5 fold
Effect of carbogen breathing on tumor growth delay produced by drug (FSaIIC fibrosarcoma; carbogen 6 hours): increased the tumor growth delay produced by BCNU to a small degree
Tumor growth delay, Carbogen (FSaIIC fibrosarcoma; [3]): 3.3 ± 0.3 days
Tumor growth delay, alkylating agent (alone) (FSaIIC fibrosarcoma; [3]): 2.5 ± 0.3 days and 2.5 days
Increase in tumor growth delay by combination of UPHS and carbogen (FSaIIC fibrosarcoma; mouse, in vivo): 2.3 fold

O=P1(N(CCCl)CCCl)NCCCO1 (stereo not drawn) [CTX, Cyclophosphamide]
Subcutaneous 9L Tumor Growth Delay, Mean Days [1]: 9.1 ± 0.7 days
Increase in tumor growth delay by prior administration of UPHS [1]: 1.5 fold
Effectiveness against subcutaneous 9L tumors [1]: very effective treatments for subcutaneously growing 9L tumors
Tumor growth delay, with Fluosol-DA and carbogen (FSaIIC fibrosarcoma; CTX 150 mg/kg + Fluosol-DA, carbogen 6 hours): about 12 days
Tumor growth delay, UPHS/Air (FSaIIC fibrosarcoma; [3]): 7.4 days and 7.4 ± 0.7 days
Increase in tumor growth delay by combination of UPHS and carbogen (FSaIIC fibrosarcoma; [2]): 4.6 fold
Increase in tumor growth delay by addition of UPHS (FSaIIC fibrosarcoma): 2.1 fold
Effect of carbogen breathing on tumor growth delay produced by drug (FSaIIC fibrosarcoma; carbogen 6 hours): small increase in the tumor growth delay
Tumor growth delay, Carbogen (FSaIIC fibrosarcoma; [3]): 5.0 ± 0.5 days
